Assays:
[1] = system: NOTCH positive/driven human T cell acute lymphoblastic leukemia cell line RPMI 8402; assay: PrestoBlue anti-proliferative assay; assay type: cell-based; settings: for IC50: Homo sapiens, RPMI 8402, RPMI8402, 72 hours, concentration range 0.03-100 μM; for fold change compared to 6-(4-tert-butylphenoxy)pyridin-3-amine (anti-proliferative IC50): RPMI8402, 72 hours
Experimental: (§1) Alamarblue® and PrestoBlue proliferation assays were performed to determine the growth kinetics of Notch inhibitor treated cells. Alamar Blue® and PrestoBlue consists of a cell permeable substrate resazurin. In metabolically active and proliferating cells, resazurin is converted to resorufin due to an intrinsic reducing power of live cells and produces a red fluorescence. Therefore production of resorufin serves as an indicator of the viability of the cell population.
Proliferation assays were performed by seeding 5000 cells/well in a 96 well plate. […] Each concentration was tested in 4 replicates. To determine the growth kinetics, 10 μl of Alamar Blue® or PrestoBlue (Invitrogen) was added to each well and incubated for 4 hours. Readout was taken using Tecan F500 (Tecan) multiplate reader or Varioskan LUX (ThermoFisher) multiplate reader.
(§2) In order to determine anti-cancer potency of compounds compared to 6-(4-tert-butylphenoxy)pyridin-3-amine (described in WO2013/093885), NOTCH positive/driven human T cell acute lymphoblastic leukemia cell line RPMI 8402 was treated with selected compounds.

[2] = system: NOTCH positive/driven human T cell acute lymphoblastic leukemia cell line RPMI 8402; assay: Alamar blue anti-proliferative assay; assay type: cell-based; settings: for IC50: Homo sapiens, RPMI 8402, RPMI8402, 72 hours, concentration range 0.01-10 μM
Experimental: as §1
Proliferation assays were performed by seeding 5000 cells/well in a 96 well plate. Cells were treated with DMSO or compounds for 72 hours using concentration ranges of 0.01-10 μM. Each concentration was tested in 4 replicates. To determine the growth kinetics, 10 μl of Alamar Blue® or PrestoBlue (Invitrogen) was added to each well and incubated for 4 hours. Readout was taken using Tecan F500 (Tecan) multiplate reader or Varioskan LUX (ThermoFisher) multiplate reader.
as §2

cMYC [3] = assay: Jess western blot of RPMI8402 protein lysates: cMYC; assay type: cell-based, human; settings: RPMI8402, 1 μM, 24 hours, 37° C
Experimental: (§3) One million human NOTCH positive T-ALL cell line RPMI8402 were treated with NOTCH targeting compounds at 1 μM concentration for 24 hours. Following treatment cells were harvested and washed with 1×PBS. Total RNA and total protein lysates were extracted as described below.
(§4) Cells were lysed in RIPA buffer (50 mM Tris·Cl, pH 7.5, 150 mM NaCl, 1% nonidet P-40, 0.5% sodium deoxycholate and 0.1% SDS) for 30 minutes at 4° C. Lysed cells were centrifuged to remove the debris at 14000 rpm at 4° C. Supernatant was transferred to a new eppendorf tube. The protein concentration was determined by Bradford assay using spectrophotometer (Ultrospec 3000 pro).
(§5) Later on western blotting was carried out using Jess (ProteinSimple, biotechne). Samples containing 0.8 μg protein was denatured in loading buffer containing DTT by heating at 95° C. for 5 minutes. Samples were run on 12-230 kDa gel matrix, with incubation time for primary and secondary antibodies of 1 hour and 30 minutes, respectively. Data were analysed using Compass for SW (ProteinSimple, biotechne) software.
(§6) Total protein lysates were analysed by Jess western blot analysis using N1-ICD (cleaved and active NOTCH1 Intracellular Domain), cMYC and GAPDH specific antibodies.

[4] = system: N1-ICD (cleaved and active NOTCH1 Intracellular Domain); assay: Jess western blot of RPMI8402 protein lysates: N1-ICD; assay type: cell-based, human; settings: RPMI8402, 1 μM, 24 hours, 37° C
Experimental: as §3, §4, §5, §6

cMYC [5] = assay: Western blot of RPMI8402 protein lysates: cMYC; assay type: cell-based, human; settings: NOTCH positive leukemic cells, 1 μM, 24 hours, FIGS. 2 and 3
Experimental: as §3, §4
(§7) Initially for western blotting, 40 μg of protein were denatured in 1×SDS gel loading buffer (100 mM Tris·Cl, pH 6.8, 200 mM DTT, 4% SDS, 0.2% bromophenol, 20% glycerol) by heating at 99° C. for 5 minutes. Denatured protein samples were stored on ice until loading on to the acrylamide gel. The samples were run on 8% or 10% acrylamide gel in Tris-glycine electrophoresis buffer (25 mM Tris, 250 mM glycine, 0.1% SDS). Following separation on the acrylamide gel, protein samples were transferred on to PVDF membrane (PEQ lab, catalog number 39-3010) using transfer buffer (39 mM glycine, 48 mM Tris base, 0.037% SDS and 20% methanol).
(§8) For immunoblotting, membranes were blocked with 5% milk and incubated overnight with primary antibodies at 4° C. Membrane were washed with 1×TBST (1×TBS+0.5 tween 20) for 5 minutes (3 times) and incubated with HRP-conjugated secondary antibodies for one hour at room temperature. Signal was detected with Super Signal West chemiluminescent substrate (Thermo Scientific, catalog number 34077).
(§9) Total protein lysates were analysed by western blot analysis using N1-ICD (cleaved and active NOTCH1 Intracellular Domain), cMYC and ACTIN specific antibodies.

[6] = system: N1-ICD (cleaved and active NOTCH1 Intracellular Domain); assay: Western blot of RPMI8402 protein lysates: N1-ICD; assay type: cell-based, human; settings: NOTCH positive leukemic cells, 1 μM, 24 hours, FIGS. 2 and 3
Experimental: as §3, §4, §7, §8, §9

NOTCH pathway = assay: Western blot, downregulation of NOTCH pathway (N1-ICD and cMYC), FIG. 2 and 3; assay type: cell-based, human; settings: RPMI8402, 1 μM, 24 hours
Experimental: NOTCH positive human leukemic RPMI8402 cells were treated with 1 μM of 6-(4-tert-butylphenoxy)pyridin-3-amine and 6-([1,1′-Biphenyl]-4-yloxy)-N-methylpyridin-3-amine for 24 hours. Following treatment, total protein lysates were extracted and protein expression analysed by western blot.
NOTCH positive human leukemic RPMI8402 cells were treated with 1 μM of 6-(4-tert-butylphenoxy)pyridin-3-amine and 6-((4′-Fluoro-[1,1′-biphenyl]-4-yl)oxy)pyridin-3-amine, 6-([1,1′-Biphenyl]-4-yloxy)-4-methylpyridin-3-amine, 6-([1,1′-Biphenyl]-4-yloxy)-2-methylpyridin-3-amine and N-Methyl-6-((6-phenylpyridin-3-yl)oxy)pyridin-3-amine for 24 hours. Following treatment, total protein lysates were extracted and protein expression analysed by western blot.
as §3, §4, §7, §8

| Structure (SMILES) | IC50 [1] [nM] | fold change compared to 6-(4-tert-butylphenoxy)pyridin-3-amine (anti-proliferative IC50) [1] | IC50 [2] [nM] | Percentage improvement of compounds over 6-(4-tert-Butylphenoxy)pyridin-3-amine to downregulate NOTCH target genes (protein expression): cMYC (cMYC [3]) [%] | Percentage improvement of compounds over 6-(4-tert-Butylphenoxy)pyridin-3-amine to downregulate NOTCH target genes (protein expression): N1-ICD [4] [%] | also measured |
| --- | --- | --- | --- | --- | --- | --- |
| CC(C)(C)c1ccc(Oc2ccc(N)cn2)cc1 [6-(4-tert-butylphenoxy)pyridin-3-amine, reference compound] | 740 | (1X) x | 740 | 100 | 100 | fold change compared to 6-(4-tert-butylphenoxy)pyridin-3-amine (anti-proliferative IC50) ([2]; RPMI8402, 72 hours): (1X) x |
| CNc1ccc(Oc2ccc(-c3ccccc3)cc2)nc1 [Example 2, 6-([1,1′-Biphenyl]-4-yloxy)-N-methylpyridin-3-amine] | – | – | 110 | – | – | downregulation of cMYC compared to 6-(4-tert-butylphenoxy)pyridin-3-amine (cMYC [5]): stronger downregulation; downregulation of N1-ICD compared to 6-(4-tert-butylphenoxy)pyridin-3-amine [6]: stronger downregulation; potency in downregulating NOTCH pathway compared with 6-(4-tert-butylphenoxy)pyridin-3-amine (NOTCH pathway): enhanced potency |
| CNc1ccc(Oc2ccc(-c3ccccc3)cc2)c(F)c1 [Example 6, 4-([1,1′-Biphenyl]-4-yloxy)-3-fluoro-N-methylaniline] | – | – | 700 | – | – | – |
| Nc1ccc(Oc2ccc(-c3ccccc3)cc2)cc1 [Example 7, 4-([1,1′-Biphenyl]-4-yloxy)aniline] | – | – | 170 | – | – | – |
| Cc1nc(Oc2ccc(-c3ccccc3)cc2)ccc1N [Example 8, 6-([1,1′-Biphenyl]-4-yloxy)-2-methylpyridin-3-amine] | – | – | 110 | – | – | downregulation of cMYC compared to 6-(4-tert-butylphenoxy)pyridin-3-amine (cMYC [5]): stronger downregulation; downregulation of N1-ICD compared to 6-(4-tert-butylphenoxy)pyridin-3-amine [6]: stronger downregulation; potency in downregulating NOTCH pathway compared with 6-(4-tert-butylphenoxy)pyridin-3-amine (NOTCH pathway): enhanced potency |
| Nc1ccc(OCCc2cc(Oc3ccc(N)cn3)ccc2-c2ccccc2)cc1 [Example 22, 6-((2-(2-(4-Aminophenoxy)ethyl)-[1,1′-biphenyl]-4-yl)oxy)pyridin-3-amine] | – | – | 920 | – | – | – |
| CNc1ccc(Oc2ccc(-c3ccc(F)cc3)cc2)nc1 [Example 27, 6-((4′-Fluoro-[1,1′-biphenyl]-4-yl)oxy)-N-methylpyridin-3-amine] | 200 | (3.7x) | – | 183 | 197 | – |
| Cc1nc(Oc2ccc(-c3ccc(F)cc3)cc2)ccc1N [Example 28, 6-((4′-Fluoro-[1,1′-biphenyl]-4-yl)oxy)-2-methylpyridin-3-amine] | < 30 | (>24x) | – | 170 | 173 | – |
| Cc1cc(Oc2ccc(-c3ccc(F)cc3)cc2)ncc1N [Example 29, 6-((4′-Fluoro-[1,1′-biphenyl]-4-yl)oxy)-4-methylpyridin-3-amine] | – | – | – | 183 | 192 | – |
| Cc1nc(Oc2ccc(-c3ccccc3)nc2)ccc1N [Example 30, 2-Methyl-6-((6-phenylpyridin-3-yl)oxy)pyridin-3-amine] | 450 | (1.6x) | – | 159 | 159 | – |
| Cc1cc(Oc2ccc(-c3ccccc3)nc2)ncc1N [Example 31, 4-Methyl-6-((6-phenylpyridin-3-yl)oxy)pyridin-3-amine] | – | – | – | 108 | 110 | – |
| Cc1nc(Oc2ccc(-c3cncs3)cc2)ccc1N [Example 32, 2-Methyl-6-(4-(thiazol-5-yl)phenoxy)pyridin-3-amine] | 500 | (1.5x) | – | 133 | 136 | – |
| Cc1cc(Oc2ccc(-c3cncs3)cc2)ncc1N [Example 33, 4-Methyl-6-(4-(thiazol-5-yl)phenoxy)pyridin-3-amine] | < 30 | (>24x) | – | 130 | 132 | – |
| CNc1ccc(Oc2ccc(-c3cncs3)cc2)nc1 [Example 34, N-Methyl-6-(4-(thiazol-5-yl)phenoxy)pyridin-3-amine] | 150 | (4.9x) | – | 115 | 114 | – |
| Cc1nc(Oc2ccc(-c3nccs3)cc2)ccc1N [Example 35, 2-Methyl-6-(4-(thiazol-2-yl)phenoxy)pyridin-3-amine] | < 30 | (>24x) | – | 130 | 132 | – |
| Cc1cc(Oc2ccc(-c3nccs3)cc2)ncc1N [Example 36, 4-Methyl-6-(4-(thiazol-2-yl)phenoxy)pyridin-3-amine] | 50 | (14.8x) | – | – | – | – |
| Cc1ccccc1-c1ccc(Oc2ccc(N)c(C)n2)cc1C [Example 37, 6-((2,2′-Dimethyl-[1,1′-biphenyl]-4-yl)oxy)-2-methylpyridin-3-amine] | – | – | – | 138 | 151 | – |
| Nc1ccc(Cc2ccc(-c3ccc(F)cc3)cc2)cc1 [Example 59, 4-((4′-Fluoro-[1,1′-biphenyl]-4-yl)methyl)aniline] | – | – | – | 154 | 149 | – |

From US12655141B2, “Inhibitors of notch signaling pathway and use thereof in treatment of cancers” (Cellestia Biotech AG, priority 2019, dated 2026)
